This is an account of results in PMC12131194, “Rational design, synthesis, and evaluation of novel polypharmacological compounds targeting NaV1.5, KV1.5, and K2P channels for atrial fibrillation” (The Journal of Biological Chemistry, 2025).

By inhibition is commonly meant the share of the control response that was lost under treatment. Higher therefore signals strong suppression. Broadly, the IC50 is the concentration that gives 50% inhibition.

One data set addresses T1, h KV1.5 (Homo sapiens, UniProt P22460).
T1 construct: h KV1.5 (KCNA5, NM_002234); expressed in transfected cells; host or cells: Xenopus laevis oocytes injected with cRNA
The experiment in a line: TEVC recordings in X. laevis oocytes, KV1.5. To be noted: 100 μM, +40 mV, oocytes, mean ± SD. The data set is classed as cell-based. How it is done: (§1) The two-electrode voltage clamp (TEVC) technique was used for electrophysiology tests. Channels were expressed in Xenopus laevis oocytes. The initial channel-blocking potential was assessed at 100 μM for the 10 synthesized compounds on TASK-1 and KV1.5 channels.
(§2) To obtain X. laevis oocytes, the frogs were anesthetized with 2 g/L of tricaine methanesulfonate, and the ovarian lobes were mechanically separated with forceps. The oocytes were incubated for 120 min in an OR2 solution containing in mM: NaCl 82.5, KCl 2, MgCl2 1, HEPES 5 (pH 7.5) supplemented with 2 mg/ml of collagenase II (Sigma) to remove residual connective tissue and obtain individual oocytes. Subsequently, the oocytes were washed with a ND96 solution containing in mM: NaCl 96, KCl 2, CaCl2 1.8, MgCl2 1, HEPES 5 (pH 7.5, adjusted with NaOH) and stored at 18 °C in ND96 solution supplemented with 1 ml of gentamicin (50 mg/L), sodium pyruvate (275 mg/L) and (90 mg/L) theophylline (inhibits further oocyte maturation) before and after RNA injection.
(§3) In order to overexpress the channel in the oocyte, each of the channels to be measured was subcloned (complementary DNA (cDNA); human TASK-1 (KCNK3, NM_002246), h KV1.5 (KCNA5, NM_002234), h NaV1.5 (hH1, M77235), TASK-4/TALK-2 (KCNK17, NM_AF358910), TREK-1 (KCNK2, AF004711) and Kir2.1 (KCNJ2, NM_017296) into pSGEM, pBF1 or pSP64 expression vector, and the cDNA was linearized with NheI or MluI. Complementary RNA (cRNA) was synthesized with the mMESSAGE mMACHINE-Kit (Ambion). The quality of the cRNA was tested on an agarose gel by electrophoresis. cRNA was quantified using a UV-Vis spectrophotometer (NanoDrop 2000). Subsequently, the channel was transfected in the oocytes in stages V and VI, for which […] (TASK-1, KV1.5 or TREK-1), 10 ng (NaV1.5 or TASK-4) o 2.5 ng (Kir2.1) per oocyte of cRNA was injected with a NanojectII microinjector (Drummond Scientific). The oocytes were stored in 24-well plates for 24 to 48 h at 18 °C. After this time, the overexpression of each channel was monitored through electrophysiology.
(§4) Two-electrode voltage clamp measurements were performed 24 or 48 h after cRNA injection at room temperature (20–22 °C) in ND96 recording solution with a TurboTEC-10CD (npi) amplifier and a Digidata 1550B (for TASK-1 and KV1.5) and 1440A (for NaV1.5) A/D converter from Axon Instruments. Micropipettes were fabricated from GB 150 TF-8P borosilicate glass capillaries (Science Products) elongated in a DMZ-Universal Puller (Zeitz, Germany). […] ND96 was used as bath solution. Data acquisition was performed using Clampex 10 software (Axon Instruments), and data were analyzed with ClampFit 10 (Axon Instruments) and Origin 7 (Origin Lab Corporation).
(§5) For compound inhibition testing, from a holding potential of −80 mV a first test pulse to 0 mV of 1 s duration was followed by a repolarization step at −80 mV for 1 s, directly followed by another 1 s test pulse at +40 mV. The sweep time interval was 10 s for KV1.5 and TASK-1 channels. For the NaV1.5 channel, the block was analyzed with voltage steps from a holding potential of −80 mV. A first depolarizing pulse to −30 mV of 50 ms duration was applied, followed by a 5 ms step to −80 mV. The sweep time interval was 5 s. The compounds were applied at different concentrations to determine the half-maximal inhibitory concentration (IC50), using a fit to the Hill equation.
(§6) To test for a putative voltage-dependence of the block by the compound 6f in KV1.5, a 1.5 s voltage step protocol from −80 to +80 mV with +20 mV increments was used. The holding potential was −80 mV and the sweep time interval was 10 s. Currents were analyzed at the end of the voltage pulse. For TASK-1, voltage-dependence of block was probed using a high-potassium solution (KD96) containing in mM: KCl 96, NaCl 2, CaCl2 1.8, MgCl2 1, HEPES 5, (pH 7.5, adjusted with KOH). From a holding potential of 0 mV, voltage was stepped from −80 mV to +80 mV for 1.5 s in +20 mV steps every 10 s. […]

A further data set has as its system human erythrocytes. The experiment in a line: Hemolysis assay. The data set is classed as cell-based. To be noted: 0.2–400 μM, 2 hours, 37 °C. Here is the method:
To evaluate cytotoxicity, the hemolysis of the compounds with the best simultaneous blocking activity on the channels (6e, 6f, 7a, 7b and 7c) was considered, modifying the protocol of Chen 2018 ([112]). Thus, non-heparinized human blood was collected. Erythrocytes were washed three times in 1× PBS (phosphate-buffered saline: NaCl, 8 g/L; KCl, 0.2 g/L; Na2HPO4, 1.44 g/L; and KH2PO4, 0.24 g/L; pH 7.4) and then used to prepare a 3% red blood cell (RBC) suspension. The assay was performed in a 96-well polypropylene microplate.
The compounds were prepared from 200 mM stock solutions in DMSO. Subsequently, 1:2 serial dilutions were made in 1× PBS, with final concentrations from 400 to 0.2 μM to a final volume of 200 μl per well. The microplate was incubated for 2 h at 37 °C and centrifuged at 3400 rpm for 5 min. Finally, 100 μl of the supernatant was transferred and measured in a 96-well plate. Hemoglobin release was monitored by photometric analysis of the supernatant at 540 nm using an Epoch Microplate Spectrophotometer (BioTek Instruments, Inc. Winooski, Vermont 05404-0998).
A 3% RBC suspension treated with Tween 20 was used to obtain total lysis as a positive control. Other authors who performed hemolysis assays have also considered this and other detergents, such as Triton X-100 and Sodium Dodecyl Sulfate (SDS) as positive controls ([113], [114], [115], [116]). The negative control was a suspension of red blood cells with PBS. Each experiment was performed in triplicate at all concentrations used. The percentage of hemolysis was calculated with the following (Equation 1), where Ad: absorbance of the dilution, A0: absorbance of the blank (RBC suspension with PBS), and At: total absorbance (positive control).(1) %hemolysis=Ad−A0/At−A0x100

In the next data set the target is human TASK-1 (Homo sapiens, UniProt O14649). The experiment in a line: TEVC recordings in X. laevis oocytes, TASK-1. Format: cell-based. Set-up: human TASK-1 (KCNK3, NM_002246); expressed in transfected cells; host or cells: Xenopus laevis oocytes injected with cRNA. To be noted: 100 μM, +40 mV, oocytes, mean ± SD. Here is the method: as §1, §2, §3, §4, §5, §6

For another data set, the target named is T2, h NaV1.5 (Homo sapiens, UniProt Q14524, R1027Q).
T2 construct: expressed in transfected cells; host or cells: Xenopus laevis oocytes injected with cRNA
The experiment in a line: TEVC recordings in X. laevis oocytes, NaV1.5. The data set is classed as cell-based. As to conditions: 100 μM, −30 mV, oocytes, mean ± SD. Here is the method:
as §2, §3, §4, §5
To test for a putative voltage-dependence of the block by the compound 6f in KV1.5, a 1.5 s voltage step protocol from −80 to +80 mV with +20 mV increments was used. The holding potential was −80 mV and the sweep time interval was 10 s. Currents were analyzed at the end of the voltage pulse. For TASK-1, voltage-dependence of block was probed using a high-potassium solution (KD96) containing in mM: KCl 96, NaCl 2, CaCl2 1.8, MgCl2 1, HEPES 5, (pH 7.5, adjusted with KOH). From a holding potential of 0 mV, voltage was stepped from −80 mV to +80 mV for 1.5 s in +20 mV steps every 10 s. To determine the current-voltage relationship of the NaV1.5 channel, the voltage was stepped for 50 ms from a holding potential of −80 mV to −70 mV to +80 mV in +10 mV increments every 5 s. The peak currents were subsequently plotted against the respective applied voltages.

Another data set relates to KV1.5. Further details: method as in PMID 33817777. As to conditions: X. laevis oocytes, ref [15], read-out: Reported IC50 KV1.5, cited from earlier work.
A further data set concerns virtual atria with AF. Further details: method as in PMID 37475475, PMID 38870348. To be noted: ref [74], [75]; cited from earlier work.
For data set [1], the system named is NaV1.5. To be noted: X. laevis oocytes, racemic (R/S) compound; ref [39]; read-out: Reported IC50 NaV1.5; cited from earlier work.
The next data set has as its system TASK-1. Set-up: method as in PMID 21946151. As to conditions: HEK-293 cells; ref [38]; read-out: Reported IC50 TASK-1; cited from earlier work.
The test system of data set [2] is NaV1.5. To be noted: HEK-293 cells, racemic (R/S) compound, NaV1.5 open state; ref [40]; read-out: Reported IC50 NaV1.5; cited from earlier work.

Like-named read-outs stand apart in the source and are kept apart here.

T2 sequence (Q14524 whole entry R1027Q): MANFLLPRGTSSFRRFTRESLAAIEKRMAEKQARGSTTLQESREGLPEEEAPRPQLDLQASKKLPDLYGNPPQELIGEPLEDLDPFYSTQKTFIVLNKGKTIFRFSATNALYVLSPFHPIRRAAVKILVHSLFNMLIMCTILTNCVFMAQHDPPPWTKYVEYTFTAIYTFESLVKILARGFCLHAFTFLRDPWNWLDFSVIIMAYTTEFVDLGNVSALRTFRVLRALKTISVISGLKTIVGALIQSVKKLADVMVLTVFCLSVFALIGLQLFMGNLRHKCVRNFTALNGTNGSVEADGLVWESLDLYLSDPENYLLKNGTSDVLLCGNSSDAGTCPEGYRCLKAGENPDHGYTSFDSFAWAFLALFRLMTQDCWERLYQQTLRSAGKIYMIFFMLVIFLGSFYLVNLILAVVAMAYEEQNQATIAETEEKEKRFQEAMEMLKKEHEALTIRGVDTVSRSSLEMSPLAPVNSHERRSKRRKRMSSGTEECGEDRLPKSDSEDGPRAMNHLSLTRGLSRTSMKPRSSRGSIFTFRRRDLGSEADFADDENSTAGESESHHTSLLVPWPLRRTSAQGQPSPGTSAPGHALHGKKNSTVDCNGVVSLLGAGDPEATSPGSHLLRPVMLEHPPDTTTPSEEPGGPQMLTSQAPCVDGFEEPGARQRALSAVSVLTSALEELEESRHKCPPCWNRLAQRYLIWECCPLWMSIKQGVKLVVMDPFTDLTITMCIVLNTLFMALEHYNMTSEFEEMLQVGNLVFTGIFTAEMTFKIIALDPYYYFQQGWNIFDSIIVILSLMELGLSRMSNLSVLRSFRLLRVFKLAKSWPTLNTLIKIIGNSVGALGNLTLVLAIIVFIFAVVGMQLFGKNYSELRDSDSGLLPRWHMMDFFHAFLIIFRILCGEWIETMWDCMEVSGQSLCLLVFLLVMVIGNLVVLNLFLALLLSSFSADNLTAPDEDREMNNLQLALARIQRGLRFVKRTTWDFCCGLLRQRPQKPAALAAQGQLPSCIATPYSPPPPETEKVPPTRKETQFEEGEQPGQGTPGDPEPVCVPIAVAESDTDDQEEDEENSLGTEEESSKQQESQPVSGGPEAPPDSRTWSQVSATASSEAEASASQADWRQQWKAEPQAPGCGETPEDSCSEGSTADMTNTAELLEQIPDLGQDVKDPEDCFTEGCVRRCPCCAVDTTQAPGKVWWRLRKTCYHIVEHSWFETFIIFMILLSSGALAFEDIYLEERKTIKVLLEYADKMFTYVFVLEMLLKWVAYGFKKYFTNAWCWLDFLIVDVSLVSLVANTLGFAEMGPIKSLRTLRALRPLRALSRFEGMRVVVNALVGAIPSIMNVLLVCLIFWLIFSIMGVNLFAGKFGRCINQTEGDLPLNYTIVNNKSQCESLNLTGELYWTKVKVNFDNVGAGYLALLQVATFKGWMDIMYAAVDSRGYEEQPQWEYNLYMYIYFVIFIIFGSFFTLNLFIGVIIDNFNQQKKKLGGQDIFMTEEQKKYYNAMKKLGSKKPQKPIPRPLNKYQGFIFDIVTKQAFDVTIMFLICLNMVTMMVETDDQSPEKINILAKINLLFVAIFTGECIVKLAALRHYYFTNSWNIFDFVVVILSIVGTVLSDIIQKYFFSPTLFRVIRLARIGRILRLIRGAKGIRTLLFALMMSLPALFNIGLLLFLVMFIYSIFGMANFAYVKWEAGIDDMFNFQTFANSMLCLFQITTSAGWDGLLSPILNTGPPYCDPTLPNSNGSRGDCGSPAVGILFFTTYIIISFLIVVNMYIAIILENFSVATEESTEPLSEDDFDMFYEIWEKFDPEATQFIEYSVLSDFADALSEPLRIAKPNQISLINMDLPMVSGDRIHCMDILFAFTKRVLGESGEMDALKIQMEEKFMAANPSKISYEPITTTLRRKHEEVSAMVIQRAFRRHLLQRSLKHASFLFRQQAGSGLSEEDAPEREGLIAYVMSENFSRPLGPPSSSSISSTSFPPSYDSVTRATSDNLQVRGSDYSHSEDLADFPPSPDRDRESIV
T1 sequence (P22460 whole entry): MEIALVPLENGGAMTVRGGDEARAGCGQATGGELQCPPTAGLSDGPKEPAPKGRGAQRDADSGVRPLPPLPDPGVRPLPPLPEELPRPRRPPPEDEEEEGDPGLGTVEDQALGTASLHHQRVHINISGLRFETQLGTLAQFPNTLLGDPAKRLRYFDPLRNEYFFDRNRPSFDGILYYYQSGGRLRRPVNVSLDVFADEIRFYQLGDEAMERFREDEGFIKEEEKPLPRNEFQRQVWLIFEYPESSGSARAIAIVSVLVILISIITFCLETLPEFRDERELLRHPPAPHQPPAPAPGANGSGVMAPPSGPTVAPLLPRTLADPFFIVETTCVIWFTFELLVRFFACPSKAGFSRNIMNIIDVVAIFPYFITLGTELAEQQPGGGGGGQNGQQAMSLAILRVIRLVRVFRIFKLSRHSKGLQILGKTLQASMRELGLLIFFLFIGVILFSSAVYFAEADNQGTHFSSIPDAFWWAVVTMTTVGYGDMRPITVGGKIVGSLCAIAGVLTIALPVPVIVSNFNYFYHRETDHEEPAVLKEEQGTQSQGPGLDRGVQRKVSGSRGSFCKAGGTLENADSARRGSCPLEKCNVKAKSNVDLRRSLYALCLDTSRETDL
Chain of human TASK-1 (O14649 whole entry): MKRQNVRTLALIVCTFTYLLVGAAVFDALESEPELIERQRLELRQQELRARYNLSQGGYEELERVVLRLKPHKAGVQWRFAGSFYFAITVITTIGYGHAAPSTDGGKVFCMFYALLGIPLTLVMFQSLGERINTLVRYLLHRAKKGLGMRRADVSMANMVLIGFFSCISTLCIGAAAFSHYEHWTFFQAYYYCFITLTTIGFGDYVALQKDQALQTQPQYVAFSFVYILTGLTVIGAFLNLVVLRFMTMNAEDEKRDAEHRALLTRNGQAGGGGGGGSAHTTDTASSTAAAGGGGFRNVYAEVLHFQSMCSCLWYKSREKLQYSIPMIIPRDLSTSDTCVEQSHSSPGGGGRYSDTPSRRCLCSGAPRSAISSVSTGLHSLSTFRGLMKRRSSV

As for `CCCCN(CCCC)C(C)C(=O)Nc1cc(C)cc(C)c1` (stereo not shown) [Compound 7d, 2-(dibutylamine)-N-(3,5-dimetilphenyl)propanamide], on h KV1.5, the inhibition at 100 µM was 12.3 to 35.7%.

As to `Cc1cc(C)cc(NC(=O)CN(C(C)C)C(C)C)c1` [Compound 6d, 2-(diisopropylamine)-N-(3,5-dimetylphenyl)acetamide], the inhibition at 100 µM against h KV1.5 was determined as 12.3 ± 6.01%.

With `CCCCN(CCCC)C(C)C(=O)Nc1cccc2ccccc12` (stereo not shown) [Compound 7c, 2-(dibutylamine)-N-(naphthalen-1-yl)propanamide], the Hemolytic effect entry with human erythrocytes is recorded as “no hemolytic effect”. Moreover, the inhibition at 100 µM against human TASK-1 is 89.3 ± 6.56%; on h NaV1.5, 31.1 ± 13.7%; at h KV1.5, 35.7 ± 18.3%.

Take `CCCCN(CCCC)CC(=O)Nc1cc(C)cc(C)c1` [Compound 6c, 2-(dibutylamine)-N-(3,5-dimethylphenyl)acetamide]: the inhibition at 100 µM on h KV1.5 is 12.3 to 35.7%.

Consider `CCCCN(CCCC)CC(=O)Nc1ccccc1C` [Compound 6a, 2-(dibutylamine)-N-(o-tolyl)acetamide], for which the inhibition at 100 µM was 88.3 ± 6.57% on human TASK-1 and 12.3 to 35.7% against h KV1.5.

Consider `CCCCN(CCCC)CC(=O)Nc1ccc(OC)cc1` [Compound 6e, 2-(dibutylamine)-N-(4-methoxiphenyl)acetamide], for which, in the data set with human erythrocytes, the Hemolytic effect entry is recorded as “no hemolytic effect”. Moreover, the inhibition at 100 µM worked out at 81.2 ± 19% against h NaV1.5 and 42.2 ± 21.2% against h KV1.5.

Take `CCCN1CCCC[C@H]1C(=O)Nc1c(C)cccc1C` [ropivacaineS]: in the data set on KV1.5 (S enantiomer), the IC50 was 129 µM.

On to `CCCCN(CCCC)CC(=O)Nc1ccccc1CC` [Compound 6b, 2-(dibutylamine)-N-(2-ethylphenyl)acetamide], for which the inhibition at 100 µM at h KV1.5 is 12.3 to 35.7%.

With `O=C(NCC1CCCCN1)c1cc(OCC(F)(F)F)ccc1OCC(F)(F)F` (stereo not shown) [flecainide], the “Cardioversion efficacy in other simulation studies” value (from here on “Cardioversion efficacy”) in the data set on virtual atria with AF was 48–70%.

As to `CCCCN(CCCC)C(C)C(=O)Nc1ccccc1C` (stereo not shown) [Compound 7b, 2-(dibutylamine)-N-(o-tolyl)propanamide], the Hemolytic effect result in the data set with human erythrocytes was “no hemolytic effect”. The inhibition at 100 µM against h NaV1.5 came out at 58.9 ± 21.2%; against h KV1.5, 36.9 ± 13.6%.

In the case of `COc1ccc(CCO[C@@H]2CCCC[C@H]2N2CC[C@@H](O)C2)cc1OC` [vernakalant], in the data set with virtual atria with AF, the “Cardioversion efficacy” value is recorded as 42–57%.

Regarding `CCCCN1CCCCC1C(=O)Nc1c(C)cccc1C` (stereo not shown) [Bupivacaine, bupivacaine], the IC50 with KV1.5 (racemic (R/S) compound) was 31 µM; with NaV1.5 [1], 4.5 µM; in the data set with TASK-1, 12.1 µM.

For the compound `CCCCN(CCCC)C(C)C(=O)Nc1ccc(OC)cc1` (stereo not shown) [Compound 7a, 2-(dibutylamine)-N-(4-methoxiphenyl)propanamide], the Hemolytic effect entry in the data set on human erythrocytes is recorded as “no hemolytic effect”. The inhibition at 100 µM on h NaV1.5 amounted to 11.9 ± 15%; against h KV1.5, 38 ± 16.1%.

Turning to `CCCCc1oc2ccccc2c1C(=O)c1cc(I)c(OCCN(CC)CC)c(I)c1` [amiodarone], in the data set with virtual atria with AF, the “Cardioversion efficacy” value is given as 57–80%.

Regarding `CCCN1CCCC[C@H]1C(=O)Nc1c(C)cccc1C` [Ropivacaine, ropivacaine], the IC50 is 322 µM in the data set on NaV1.5 [2] and 17.6 µM in the data set with TASK-1.
